Read-outs that look alike come from different tables or passages of the source.
Molecular target: T1, human Estrogen receptor alpha (ERα) (Homo sapiens, UniProt P03372)
T1 construct: expressed in transfected cells; host or cells: GeneBLAzer ER-α-UAS-bla GripTite 293 cells (stably integrated)
T1 sequence (P03372 311-547 limits assumed): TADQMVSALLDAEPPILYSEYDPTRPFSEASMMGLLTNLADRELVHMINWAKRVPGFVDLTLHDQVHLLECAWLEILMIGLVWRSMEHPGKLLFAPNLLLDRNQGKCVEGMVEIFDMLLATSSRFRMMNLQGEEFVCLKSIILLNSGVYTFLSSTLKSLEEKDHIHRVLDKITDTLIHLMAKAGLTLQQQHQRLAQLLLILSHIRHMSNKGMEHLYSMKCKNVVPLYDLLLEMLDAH
Experiment: GeneBLAzer Cell-Based Nuclear Receptor Assay (beta-lactamase reporter), ER-α-UAS-bla GripTite 293 cells
Details: for estrogenic activity on ERα cells compared with BPA, BPS and BP: in words
Experimental: The response value “EC50” was measured by using the GeneBLAzer® Cell-Based Nuclear Receptor Assay technology which uses the GeneBLAzer®.
The monomers (see Table 7) were dissolved in 100% biological-grade DMSO at a concentration of 7 to 250000 nM (nanomolar). The ER-α-UAS-bla GripTite™ 293 cells were used to measure EC50. The higher the EC50 value is, the weaker the estrogenic agonist activity is for the monomer tested.
The GeneBLAzer® ER-α-UAS-bla GripTite™ cells contain a ligand-binding domain (LBD) of the human Estrogen receptor alpha (ERα) fused to a DNA-binding domain of GAL4 plasmid stably integrated in the GeneBLAzer® UAS-bla GripTite™ cell line. The GeneBLAzer® UAS-bla GripTite™ cells stably express a beta-lactamase reporter gene under the transcriptional control of an upstream activator sequence (UAS). When an estrogenic agonist binds to the LBD of the GAL4 (DBD)-ER α (LBD) fusion protein, the protein binds to the UAS, resulting in expression of beta-lactamase.

[1] = estrogen agonist activity, ER-α-UAS-bla GripTite 293 cells, monomers in DMSO, 7 to 250000 nM, read-out: EC50 (nM) response value to the estrogen receptor alpha
[2] = estrogen agonist activity on ERα cells, read-out: EC50 value

SMILES: Oc1ccc2ccc(O)cc2c1 [2,7-NDO, 2,7 Napthalene diol]
- EC50 [1]: 32000 nM
- estrogenic activity on ERα cells compared with BPA, BPS and BP: much lower estrogenic activity

SMILES: O=S(=O)(c1ccc(O)cc1)c1ccc(O)cc1 [BPS, 4,4′-dihydroxydiphenyl sulfone, reference compound]
- EC50 [1]: 791 nM

SMILES: Oc1cccc2c(O)cccc12 [1,5-NDO, 1,5 Naphthalene diol]
- EC50 [2]: ≥ 30000 nM
- EC50 [1]: > 79100 nM
- estrogenic activity on ERα cells compared with BPA, BPS and BP: much lower estrogenic activity

SMILES: Oc1cc2ccccc2cc1O [2,3-NDO, 2,3 Napthalene diol]
- EC50 [2]: ≥ 30000 nM
- EC50 [1]: > 79100 nM
- estrogenic activity on ERα cells compared with BPA, BPS and BP: much lower estrogenic activity

Reference: patent US20250223404A1, “SHAPED ARTICLE COMPRISING A POLY(ARYL ETHER SULFONE) (PAES) POLYMER AND METHOD OF MAKING USING MELT PROCESSING” (Solvay Specialty Polymers USA, LLC, priority 2022, published 2025)
